We go through 1 compound from ChEMBL document CHEMBL3286221, “Design and synthesis of novel 1,2,3-triazole derivatives of coronopilin as anti-cancer compounds” (Eur J Med Chem, 2014).

Assay [1] relates to PC-3. The assay is described as follows: Cell cycle arrest in human PC3 cells assessed as accumulation at M phase at 1 uM after 24 hrs by propidium iodide staining-based flow cytometric analysis (reference value: 3%). The assay is classed as functional. (A flow cytometer gives signals particle by particle.)
Assay [2] relates to THP-1. Kind of assay: Cytotoxicity against human THP1 cells after 48 hrs by sulforhodamine B assay. Conditions: THP-1, 48 h. The assay is classed as functional, cell-based.
For assay [3], the system named is PC-3. Kind of assay: Cell cycle arrest in human PC3 cells assessed as accumulation at S phase at 1 uM after 24 hrs by propidium iodide staining-based flow cytometric analysis (reference value: 8.5%). In kind it is functional.
In assay [4] the test system is PC-3. The assay is described as follows: Cell cycle arrest in human PC3 cells assessed as accumulation at sub-G1 phase at 10 uM after 24 hrs by propidium iodide staining-based flow cytometric analysis (reference value: 13.1%). In kind it is functional.
The test system of assay [5] is A549. The assay is described as follows: Cytotoxicity against human A549 cells after 48 hrs by sulforhodamine B assay. In kind it is functional, cell-based. Conditions: A549, 48 h. A general note: The SRB assay estimates cell density from bound dye.
The subject of assay [6] is MCF7. The assay is described as follows: Cytotoxicity against human MCF7 cells after 48 hrs by sulforhodamine B assay. In kind it is functional, cell-based. Conditions: MCF7, 48 h.
Assay [7] deals with HeLa. Kind of assay: Cytotoxicity against human HeLa cells after 48 hrs by sulforhodamine B assay. In kind it is functional, cell-based.
Assay [8] in a line: Cytotoxicity against human HCT15 cells after 48 hrs by sulforhodamine B assay. The assay is classed as functional, cell-based. Conditions: HCT-15, 48 h.
The subject of assay [9] is PC-3. The assay is described as follows: Cell cycle arrest in human PC3 cells assessed as accumulation at M phase at 10 uM after 24 hrs by propidium iodide staining-based flow cytometric analysis (reference value: 3%). The assay is classed as functional.
For assay [10], the system named is PC-3. The assay is described as follows: Cell cycle arrest in human PC3 cells assessed as accumulation at sub-G1 phase at 5 uM after 24 hrs by propidium iodide staining-based flow cytometric analysis (reference value: 13.1%). The assay is classed as functional.
Assay [11] relates to PC-3. Kind of assay: Cell cycle arrest in human PC3 cells assessed as accumulation at S phase at 10 uM after 24 hrs by propidium iodide staining-based flow cytometric analysis (reference value: 8.5%). The assay is classed as functional.
In assay [12] the test system is PC-3. Kind of assay: Cell cycle arrest in human PC3 cells assessed as accumulation at G0/G1 phase at 1 uM after 24 hrs by propidium iodide staining-based flow cytometric analysis (reference value: 68.2%). The assay is classed as functional.
The test system of assay [13] is PC-3. Kind of assay: Cell cycle arrest in human PC3 cells assessed as accumulation at S phase at 5 uM after 24 hrs by propidium iodide staining-based flow cytometric analysis (reference value: 8.5%). In kind it is functional.
For assay [14], the target named is Transcription factor p65 (Homo sapiens) (UniProt Q04206). Kind of assay: Inhibition of NFkappaB p65 binding to consensus DNA sequence in human PC3 cells at 100 uM after 24 hrs by ELISA relative to control. In kind it is cell-based. Conditions: PC-3. A general note: In an ELISA, binding on a coated surface is turned into a signal by an enzyme label.
Transcription factor p65 (Homo sapiens), sequence (Q04206 whole entry): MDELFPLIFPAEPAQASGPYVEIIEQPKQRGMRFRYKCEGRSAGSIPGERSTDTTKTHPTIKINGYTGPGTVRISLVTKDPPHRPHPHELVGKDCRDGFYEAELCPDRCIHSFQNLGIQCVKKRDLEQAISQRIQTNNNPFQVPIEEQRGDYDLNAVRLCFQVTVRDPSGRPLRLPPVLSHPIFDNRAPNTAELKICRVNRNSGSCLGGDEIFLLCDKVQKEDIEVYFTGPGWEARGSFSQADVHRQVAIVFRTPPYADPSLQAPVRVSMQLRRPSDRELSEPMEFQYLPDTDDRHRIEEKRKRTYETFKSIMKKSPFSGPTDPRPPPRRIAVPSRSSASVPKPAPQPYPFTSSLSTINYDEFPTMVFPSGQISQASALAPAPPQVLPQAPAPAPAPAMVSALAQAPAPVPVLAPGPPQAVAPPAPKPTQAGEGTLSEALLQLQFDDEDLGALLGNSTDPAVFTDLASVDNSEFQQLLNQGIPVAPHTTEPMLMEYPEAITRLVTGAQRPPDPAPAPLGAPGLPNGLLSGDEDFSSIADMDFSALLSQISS
The subject of assay [15] is PC-3. Kind of assay: Cell cycle arrest in human PC3 cells assessed as accumulation at G0/G1 phase at 10 uM after 24 hrs by propidium iodide staining-based flow cytometric analysis (reference value: 68.2%). In kind it is functional.
For assay [16], the system named is PC-3. Kind of assay: Cytotoxicity against human PC3 cells after 48 hrs by sulforhodamine B assay. The assay is classed as functional, cell-based. The following applies: PC-3, 48 h.
Assay [17] relates to PC-3. Kind of assay: Cell cycle arrest in human PC3 cells assessed as accumulation at M phase at 5 uM after 24 hrs by propidium iodide staining-based flow cytometric analysis (reference value: 3%). The assay is classed as functional.
Assay [18] concerns the target Transcription factor p65 (Homo sapiens) (UniProt Q04206). The assay is described as follows: Inhibition of NFkappaB p65 binding to consensus DNA sequence in human PC3 cells after 24 hrs by Western blotting analysis. Conditions: PC-3. In kind it is cell-based.
The target is the same in assay [19]. The assay is described as follows: Inhibition of NFkappaB p65 binding to consensus DNA sequence in human PC3 cells after 24 hrs by ELISA. Conditions: PC-3. In kind it is cell-based.
The test system of assay [20] is PC-3. The assay is described as follows: Cell cycle arrest in human PC3 cells assessed as accumulation at G0/G1 phase at 5 uM after 24 hrs by propidium iodide staining-based flow cytometric analysis (reference value: 68.2%). In kind it is functional.
The test system of assay [21] is PC-3. Kind of assay: Cell cycle arrest in human PC3 cells assessed as accumulation at sub-G1 phase at 1 uM after 24 hrs by propidium iodide staining-based flow cytometric analysis (reference value: 13.1%). The assay is classed as functional.
Assay [22] deals with PC-3. The assay is described as follows: Cell cycle arrest in human PC3 cells assessed as accumulation at sub-G1 phase after 24 hrs by propidium iodide staining-based flow cytometric analysis. In kind it is functional.
Assay [23] deals with Transcription factor p65 (Homo sapiens) (UniProt Q04206). The assay is described as follows: Inhibition of NFkappaB p65 binding to consensus DNA sequence in human PC3 cells at 100 uM after 24 hrs by Western blotting analysis relative to control. In kind it is cell-based. Conditions: PC-3.

By IC50 is commonly meant the concentration that gives 50% inhibition. By inhibition is commonly meant the relative decrease from the control value, in per cent.

`C=C1C(=O)O[C@@H]2[C@H]1CC[C@H](C)[C@]1(O)[C@@H](n3cc(COc4ccccc4Cl)nn3)CC(=O)[C@@]21C`: the Activity came to 1% in assay [1]; 4.2% in assay [3]; 49.2% in assay [4]; 1% in assay [9]; 39.9% in assay [10]; 3% in [11]. Besides, the Activity in assay [12] is 52.3%; in assay [13] it was 3.5%; in assay [15], 50.7%; in assay [17] it was 1.9%; in [20] it was 51.2%; in [21], 38.8%. The Activity result in assay [22] is “Dose-dependent effect”. Further, the IC50 in assay [2] came to 3.8 µM; in assay [5], 4.2 µM; in [6], 9.7 µM; in assay [7], 3.6 µM; in [8] it was 5.3 µM; in assay [16] it was 3.1 µM. Besides, the inhibition in assay [14] is 80%; in assay [18], “Dose-dependent effect”; in assay [19], “Dose-dependent effect”; in assay [23], 80%.
